Literature values as cited in PMC13584777, “Synthesis, Conformational Analysis, and Evaluation of 6R- and 6S‑Methylmannoimidazoles as Mannosidase Inhibitors” (ACS Omega, 2026).

Target: T1, BtMan2A (Bacteroides thetaiotaomicron, UniProt Q8AAK6)
T1 construct: purchased NZYTech CZ0810
Details: Figure 3, authors' earlier study of the 1-deoxymannojirimycin series

T1 sequence (Q8AAK6 entry or part of it, change not shown): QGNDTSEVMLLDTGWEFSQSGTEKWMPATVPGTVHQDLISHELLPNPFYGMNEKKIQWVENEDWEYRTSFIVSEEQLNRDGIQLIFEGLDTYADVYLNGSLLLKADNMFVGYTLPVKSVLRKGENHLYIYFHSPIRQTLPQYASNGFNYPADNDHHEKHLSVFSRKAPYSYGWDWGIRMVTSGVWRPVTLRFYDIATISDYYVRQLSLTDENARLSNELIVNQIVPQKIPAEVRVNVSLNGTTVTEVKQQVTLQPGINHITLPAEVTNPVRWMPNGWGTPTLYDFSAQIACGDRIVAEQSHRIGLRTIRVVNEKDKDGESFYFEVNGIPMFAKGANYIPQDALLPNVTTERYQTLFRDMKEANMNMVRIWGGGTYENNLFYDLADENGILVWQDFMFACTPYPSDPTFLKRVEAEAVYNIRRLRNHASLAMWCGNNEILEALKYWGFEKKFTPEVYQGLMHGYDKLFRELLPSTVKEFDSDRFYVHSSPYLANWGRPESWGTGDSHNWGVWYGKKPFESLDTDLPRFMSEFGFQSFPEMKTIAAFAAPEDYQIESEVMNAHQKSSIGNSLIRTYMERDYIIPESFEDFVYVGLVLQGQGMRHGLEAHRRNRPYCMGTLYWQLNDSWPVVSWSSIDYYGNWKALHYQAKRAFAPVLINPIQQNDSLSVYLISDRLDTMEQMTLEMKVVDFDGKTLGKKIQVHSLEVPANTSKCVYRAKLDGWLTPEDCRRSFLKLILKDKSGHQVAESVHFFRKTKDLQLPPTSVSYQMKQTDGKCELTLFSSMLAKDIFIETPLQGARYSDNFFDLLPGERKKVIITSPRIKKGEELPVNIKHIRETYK

Row | SMILES | Ki [mM]
1 | C[C@H](O)[C@H]1NC[C@@H](O)[C@@H](O)[C@@H]1O [compound 2, 6S-methyl-1-deoxymannojirimycin] | 1.4 ± 0.2
2 | C[C@@H](O)[C@H]1NC[C@@H](O)[C@@H](O)[C@@H]1O [compound 1, 6R-methyl-1-deoxymannojirimycin] | 14 ± 1
